Measured values published in ChEMBL document CHEMBL3745645, “Synthesis, in vitro antitumor activity, dihydrofolate reductase inhibition, DNA intercalation and structure-activity relationship studies of 1,3,5-triazine analogues” (Bioorg Med Chem Lett, 2016).
Active and inactive are the calls of the source. The rule behind the calls is not given here.

Experiments:
Format in all cases: functional
[1] = Cytotoxicity against human Caki1 cells at 10 uM after 48 hrs by SRB assay; conditions: CAKI-1, 48 h, read-out: GI
[2] = Cytotoxicity against human RXF393 cells at 10 uM after 48 hrs by SRB assay; conditions: RXF 393, 48 h, read-out: GI
[3] = test system: SN12C; assay: Cytotoxicity against human SN12C cells at 10 uM after 48 hrs by SRB assay; conditions: read-out: GI
[4] = test system: TK-10; assay: Cytotoxicity against human TK10 cells at 10 uM after 48 hrs by SRB assay
[5] = Cytotoxicity against human UO31 cells at 10 uM after 48 hrs by SRB assay; conditions: UO-31, 48 h, read-out: GI
[6] = Cytotoxicity against human DU145 cells at 10 uM after 48 hrs by SRB assay; conditions: DU-145, 48 h, read-out: GI
[7] = test system: MCF7; assay: Cytotoxicity against human MCF7 cells at 10 uM after 48 hrs by SRB assay; conditions: MCF7, 48 h, read-out: GI
[8] = test system: MDA-MB-231; assay: Cytotoxicity against human MDA-MB-231 cells at 10 uM after 48 hrs by SRB assay; conditions: MDA-MB-231, 48 h, read-out: GI
[9] = test system: Hs-578T; assay: Cytotoxicity against human Hs 578T cells at 10 uM after 48 hrs by SRB assay
[10] = Cytotoxicity against human BT549 cells at 10 uM after 48 hrs by SRB assay; conditions: BT-549, 48 h, read-out: GI
[11] = test system: T47D; assay: Cytotoxicity against human T47D cells at 10 uM after 48 hrs by SRB assay; conditions: read-out: GI
[12] = test system: MDA-MB-468; assay: Cytotoxicity against human MDA-MB-468 cells at 10 uM after 48 hrs by SRB assay; conditions: MDA-MB-468, 48 h, read-out: GI
[13] = test system: CCRF-CEM; assay: Cytotoxicity against human CCRF-CEM cells at 10 uM after 48 hrs by SRB assay
[14] = test system: HL-60(TB); assay: Cytotoxicity against human HL-60(TB) cells at 10 uM after 48 hrs by SRB assay
[15] = test system: K562; assay: Cytotoxicity against human K562 cells at 10 uM after 48 hrs by SRB assay
[16] = test system: MOLT-4; assay: Cytotoxicity against human MOLT4 cells at 10 uM after 48 hrs by SRB assay
[17] = test system: RPMI-8226; assay: Cytotoxicity against human RPMI8226 cells at 10 uM after 48 hrs by SRB assay
[18] = test system: SR; assay: Cytotoxicity against human SR cells at 10 uM after 48 hrs by SRB assay
[19] = test system: A549; assay: Cytotoxicity against human A549 cells at 10 uM after 48 hrs by SRB assay; conditions: A549, 48 h, read-out: GI
[20] = Cytotoxicity against human HOP62 cells at 10 uM after 48 hrs by SRB assay; conditions: HOP-62, 48 h, read-out: GI
[21] = Cytotoxicity against human HOP92 cells at 10 uM after 48 hrs by SRB assay; conditions: HOP-92, 48 h, read-out: GI
[22] = test system: NCI-H226; assay: Cytotoxicity against human NCI-H226 cells at 10 uM after 48 hrs by SRB assay; conditions: NCI-H226, 48 h, read-out: GI
[23] = test system: NCI-H322M; assay: Cytotoxicity against human NCI-H322M cells at 10 uM after 48 hrs by SRB assay; conditions: read-out: GI
[24] = test system: NCI-H460; assay: Cytotoxicity against human NCI-H460 cells at 10 uM after 48 hrs by SRB assay; conditions: NCI-H460, 48 h, read-out: GI
[25] = test system: NCI-H522; assay: Cytotoxicity against human NCI-H522 cells at 10 uM after 48 hrs by SRB assay; conditions: NCI-H522, 48 h, read-out: GI
[26] = Cytotoxicity against human COLO205 cells at 10 uM after 48 hrs by SRB assay; conditions: COLO 205, 48 h, read-out: GI
[27] = Cytotoxicity against human HCC2998 cells at 10 uM after 48 hrs by SRB assay; conditions: HCC 2998, 48 h, read-out: GI
[28] = Cytotoxicity against human HCT116 cells at 10 uM after 48 hrs by SRB assay; conditions: HCT-116, 48 h, read-out: GI
[29] = test system: HCT-15; assay: Cytotoxicity against human HCT15 cells at 10 uM after 48 hrs by SRB assay
[30] = test system: HT-29; assay: Cytotoxicity against human HT-29 cells at 10 uM after 48 hrs by SRB assay; conditions: HT-29, 48 h, read-out: GI
[31] = test system: KM12; assay: Cytotoxicity against human KM12 cells at 10 uM after 48 hrs by SRB assay; conditions: KM12, 48 h, read-out: GI
[32] = Cytotoxicity against human SW620 cells at 10 uM after 48 hrs by SRB assay; conditions: SW-620, 48 h, read-out: GI
[33] = Cytotoxicity against human SF268 cells at 10 uM after 48 hrs by SRB assay; conditions: SF-268, 48 h, read-out: GI
[34] = Cytotoxicity against human SF295 cells at 10 uM after 48 hrs by SRB assay; conditions: SF-295, 48 h, read-out: GI
[35] = Cytotoxicity against human SF539 cells at 10 uM after 48 hrs by SRB assay; conditions: SF-539, 48 h, read-out: GI
[36] = Cytotoxicity against human SNB19 cells at 10 uM after 48 hrs by SRB assay; conditions: SNB-19, 48 h, read-out: GI
[37] = Cytotoxicity against human SNB75 cells at 10 uM after 48 hrs by SRB assay; conditions: SNB-75, 48 h, read-out: GI
[38] = test system: U-251; assay: Cytotoxicity against human U251 cells at 10 uM after 48 hrs by SRB assay; conditions: U-251, 48 h, read-out: GI
[39] = Cytotoxicity against human LOXIMVI cells at 10 uM after 48 hrs by SRB assay; conditions: LOX IMVI, read-out: GI
[40] = test system: Malme-3M; assay: Cytotoxicity against human MALME-3M cells at 10 uM after 48 hrs by SRB assay; conditions: read-out: GI
[41] = test system: M14; assay: Cytotoxicity against human M14 cells at 10 uM after 48 hrs by SRB assay; conditions: M14, 48 h, read-out: GI
[42] = test system: MDA-MB-435; assay: Cytotoxicity against human MDA-MB-435 cells at 10 uM after 48 hrs by SRB assay; conditions: MDA-MB-435, 48 h, read-out: GI
[43] = test system: SK-MEL-2; assay: Cytotoxicity against human SK-MEL-2 cells at 10 uM after 48 hrs by SRB assay; conditions: SK-MEL-2, 48 h, read-out: GI
[44] = test system: SK-MEL-28; assay: Cytotoxicity against human SK-MEL-28 cells at 10 uM after 48 hrs by SRB assay
[45] = test system: SK-MEL-5; assay: Cytotoxicity against human SK-MEL-5 cells at 10 uM after 48 hrs by SRB assay; conditions: SK-MEL-5, 48 h, read-out: GI
[46] = Cytotoxicity against human UACC257 cells at 10 uM after 48 hrs by SRB assay; conditions: UACC-257, 48 h, read-out: GI
[47] = Cytotoxicity against human IGROV1 cells at 10 uM after 48 hrs by SRB assay; conditions: IGROV-1, 48 h, read-out: GI
[48] = Cytotoxicity against human OVCAR3 cells at 10 uM after 48 hrs by SRB assay; conditions: OVCAR-3, 48 h, read-out: GI
[49] = Cytotoxicity against human OVCAR4 cells at 10 uM after 48 hrs by SRB assay; conditions: OVCAR-4, 48 h, read-out: GI
[50] = test system: OVCAR-5; assay: Cytotoxicity against human OVCAR5 cells at 10 uM after 48 hrs by SRB assay
[51] = Cytotoxicity against human OVCAR8 cells at 10 uM after 48 hrs by SRB assay; conditions: OVCAR-8, 48 h, read-out: GI
[52] = test system: NCI/ADR-RES; assay: Cytotoxicity against human NCI-ADR-RES cells at 10 uM after 48 hrs by SRB assay
[53] = Cytotoxicity against human SKOV3 cells at 10 uM after 48 hrs by SRB assay; conditions: SK-OV-3, 48 h, read-out: GI
[54] = test system: 786-0; assay: Cytotoxicity against human 786-0 cells at 10 uM after 48 hrs by SRB assay; conditions: 786-0, 48 h, read-out: GI
[55] = test system: A498; assay: Cytotoxicity against human A498 cells at 10 uM after 48 hrs by SRB assay; conditions: A498, 48 h, read-out: GI
[56] = test system: ACHN; assay: Cytotoxicity against human ACHN cells at 10 uM after 48 hrs by SRB assay; conditions: read-out: GI

Structure (SMILES): Cc1nc2cc(Nc3nc(NCCN)nc(Nc4ccc(F)cc4)n3)ccc2n1Cc1ccccc1
- inhibition of growth at 10 µM [1]: 5.83%
- inhibition of growth at 10 µM [2]: 28%
- inhibition of growth at 10 µM [3]: 14.9%
- growth inhibition (GI) [4]: inactive
- inhibition of growth at 10 µM [5]: 10.7%
- inhibition of growth at 10 µM [6]: 17.8%
- inhibition of growth at 10 µM [7]: 31.2%
- inhibition of growth at 10 µM [8]: 39.6%
- growth inhibition (GI) [9]: inactive
- inhibition of growth at 10 µM [10]: 9.96%
- inhibition of growth at 10 µM [11]: 30.9%
- inhibition of growth at 10 µM [12]: 26.8%
- growth inhibition (GI) [13]: Active
- growth inhibition (GI) [14]: Active
- growth inhibition (GI) [15]: Active
- growth inhibition (GI) [16]: Active
- growth inhibition (GI) [17]: Active
- growth inhibition (GI) [18]: Active
- inhibition of growth at 10 µM [19]: 16.1%
- inhibition of growth at 10 µM [20]: 20.9%
- inhibition of growth at 10 µM [21]: 51.5%
- inhibition of growth at 10 µM [22]: 4.61%
- inhibition of growth at 10 µM [23]: 0.32%
- inhibition of growth at 10 µM [24]: 17.4%
- inhibition of growth at 10 µM [25]: 14.1%
- inhibition of growth at 10 µM [26]: 18%
- inhibition of growth at 10 µM [27]: 29.4%
- inhibition of growth at 10 µM [28]: 39.7%
- growth inhibition (GI) [29]: inactive
- inhibition of growth at 10 µM [30]: 64.9%
- inhibition of growth at 10 µM [31]: 29.4%
- inhibition of growth at 10 µM [32]: 26.1%
- inhibition of growth at 10 µM [33]: 28.2%
- inhibition of growth at 10 µM [34]: 20.2%
- inhibition of growth at 10 µM [35]: 3.98%
- inhibition of growth at 10 µM [36]: 8.37%
- inhibition of growth at 10 µM [37]: 15.8%
- inhibition of growth at 10 µM [38]: 22.6%
- inhibition of growth at 10 µM [39]: 41.8%
- inhibition of growth at 10 µM [40]: 6.46%
- inhibition of growth at 10 µM [41]: 18.4%
- inhibition of growth at 10 µM [42]: 19.6%
- inhibition of growth at 10 µM [43]: 9.54%
- growth inhibition (GI) [44]: inactive
- inhibition of growth at 10 µM [45]: 13.4%
- inhibition of growth at 10 µM [46]: 9.53%
- inhibition of growth at 10 µM [47]: 18.6%
- inhibition of growth at 10 µM [48]: 13.3%
- inhibition of growth at 10 µM [49]: 23%
- growth inhibition (GI) [50]: inactive
- inhibition of growth at 10 µM [51]: 10.9%
- growth inhibition (GI) [52]: inactive
- inhibition of growth at 10 µM [53]: 4.49%
- inhibition of growth at 10 µM [54]: 17.6%
- inhibition of growth at 10 µM [55]: 32.6%
- inhibition of growth at 10 µM [56]: 3.22%
